In series [1] the target is mTOR (Homo sapiens (Human), UniProt P42345). In words: mTOR enzymatic assay. It counts as biochemical. The note with it: read-out: In vitro enzymatic activity (IC50) mTOR. How it is done:
(§1) Assay 1-2: In Vitro Enzymatic Inhibitory Activity of the Present Compound
1. Preparation of Agents:
(§2) • 1.1 1-fold kinase buffer: 50 mM HEPES, pH 7.5, 10 mM MgCl2, 1 mM EGTA, 3 mM MnCl2, 0.01% Tween-20, 2 mM DTT; • 1.2 4-fold kinase solution: mTOR kinase was added to 1-fold kinase buffer to form 4-fold kinase solution with a final concentration of 2.5 nM; • 1.3 2-fold substrate and ATP solution: the substrate 4EBP1 and ATP were added to 1-fold kinase buffer to form 2-fold substrate solution with final concentration of 50 nM of 4EBP1 and 10.8 μM of ATP; • 1.4 4-fold test substance solutions: 100-fold test substance solutions in different gradient concentrations were formulated with 100% DMSO, and diluted by 25 folds with 1-fold kinase buffer to form 4-fold test substance solutions in different gradient concentrations. • 1.5 Preparation of detection solution: a detection solution containing 2-fold final concentrations of EDTA and 4EBP1 phosphorylated antibody was formulated, wherein the final concentration for EDTA was 8 mM, and the final concentration for the 4EBP phosphorylated antibody was 2 nM. 2. Procedure • 2.1 To each well of a 384-well plate was added 2.5 μL of the 4-fold test substance solutions in gradient concentrations. The replication was made. • 2.2 To each well was added 2.5 μL of 4-fold kinase solution, and then the plate was incubated for 10 mins; • 2.3 Then to each well was added 5 μL/of 2-fold substrate and ATP solution, and then the plate was incubated at room temperature for 1 hour; • 2.4 Finally, 10 μL of the detection solution was added to terminate the reaction. After 60 mins, the data Lance signal ([…]) was read from Envision. 3 Data treatment Inhibition rate (%)=[…] • wherein: • maximum refers to the reading at the DMSO control well. • minimum refers to the reading at the control well without kinase, • The data was input into Graphpad Prism 5.0 to plot and obtain the curve and IC50 value. PI3Kα Enzymatic Assay 1. […] After 15 mins, the data Lance signal ([…]) was read from Envision. 3 Data treatment Inhibition rate (%)=100−(sample value−minimum)/(maximum−minimum)×100 • wherein: • maximum refers to the reading at the control well without kinase, • minimum refers to the reading at the DMSO control well, • The data was input into Graphpad Prism 5.0 to plot and obtain the curve and IC50 value. […]

The target of series [2] is PI3Kα (Homo sapiens (Human), UniProt P42336). Nature of the series: PI3Kα enzymatic assay. It counts as biochemical. The note with it: read-out: In vitro enzymatic activity (IC50) PI3Kα. How it is done:
as §1, §2

Series [3] relates to SKOV-3. In words: In vitro cytological inhibitory activity (XTT). It counts as cell-based. The note with it: Homo sapiens, SK-OV-3, 72 hrs. How it is done: SKOV-3: Human ovarian cancer cell line;
(§3) 1. Preparation of agents and compounds:
(§4) • 1.1 Preparation of phosphoric acid buffering solution (PBS): 8 g NaCl, 0.2 g KCl, 1.44 g Na2HPO4 and 0.24 g KH2PO4 were weighed and added to 800 mL ultrapure water. The mixture was adjusted to pH=7.4, and ultrapure water was added to the metered volume of IL. Then the autoclaving was conducted for 20 mins. • 1.2 Preparation of XTT detection working solution: 100 mg (2,3-Bis-(2-methoxy-4-nitro-5-sulfophenyl)-2H-tetrazolium-5-carboxanilide); 2,3-bis(2-methoxy-4-nitro-5-sulfophenyl)-5-[(phenylamino)carbonyl]-2H-tetrazolium hydroxide (XTT) powder was weighed, and dissolved under protection from light 300 mL of phenol red-free and serum-free RPMI1640 culture, which had been warmed up to 50° C. The resulting mixture was filtered, packaged and used immediately or in one week. The complete process was conducted under protection from light. • 1.3 Preparation of the test compound • Preparation of the stock solution of the test compound: The test compound powder was dissolved in DMSO in a concentration of 10 mM. • Preparation of the gradiently diluted solution of the test compound: 10 mM of the stock solution of the test compound was successively and gradiently diluted with DMSO by 4 folds for 10 concentrations. […]
For orientation: Formazan colour is commonly taken as a measure of viable cells.

A short description of series [4]: In vivo pharmacokinetics assay in rat. Particulars: male, SD, plasma, rats; for Vd: read-out: Vss. The text has this: Test animals: male SD rats, weighing 190-260 g. Intravenous bolus injection (I.V.) and gavage (P.O.) administrations were each applied to three rats.
Compound 5, for both I.V and P.O administrations, was solubilized with a solution of 30% DMF+50% PEG400+20%(0.9% sodium chloride injection)(the pH being adjusted with a suitable amount of an aqueous hydrochloric acid solution (2 mol/L)).
Compound 6, for both I.V and P.O administrations, was solubilized with a solution of 30% DMF+30% PEG400+5%0.1 mol/lhydrochloric acid+[…] normal saline.
Compound 30 for I.V administration was solubilized with a solution of 30% DMF+50% PEG400+20% normal saline; Compound 30 for P.O administration was solubilized with a solution of 5% DMSO+30% polyoxyethylene castor oil+65% normal saline.
Compound 30 hydrochloride for I.V administration was solubilized with a solution of 30% DMF+50% PEG400+20% sterile water for injection.
I.V blood sampling time point: 0.083 h, 0.25 h, 0.5 h, 1 h, 2 h, 4 h, 6 h, 8 h and 24 h after the administration, P.O blood sampling time point: 0.17 h, 0.5 h, 1 h, 2 h, 4 h, 6 h, 8 h and 24 h after the administration.
About 100 μl of whole blood was taken at each time point, anticoagulated with heparin sodium, and centrifugated at 8,000 rpm in a high-speed centrifuge for 6 minutes to separate plasma, and the resulting plasma was frozen at −80° C. in a refrigerator.
The plasma sample was treated with a liquid-liquid extraction. 20 μL of plasma was taken. A solution of BEZ-235 (Novartis, Phase II) in tertbutylmethylether (600 μL, 10 ng/mL) was added as internal standard. The mixture was rotated vertically at 1500 rpm for 10 mins and then centrifugated at 12000 rpm for 5 mins. 400 μL of the supernate was taken and dried under nitrogen. The dried substance was redissolved in 200 μL methanol:water (7:3, V/V) for LC-MS/MS analysis.
Calculation Absolute bioavailability F%=[AUC]last (P.O)*Dose(I.V)/[AUC]last (I.V)*Dose(P.O)

Series [5] has as its system A549. Nature of the series: In vitro cytological inhibitory activity (XTT). It counts as cell-based. Particulars: Homo sapiens, 72 hrs. How it is done:
A549: Human lung cancer cell line;
as §3, §4

The test system of series [6] is U87MG. In words: In vitro cytological inhibitory activity (XTT). Particulars: Homo sapiens, U-87 MG, 72 hrs. It counts as cell-based. How it is done: U87MG: Human brain astrocytoblast cell line;
as §3, §4

Series [7] deals with PC-3. Nature of the series: In vitro cytological inhibitory activity (XTT). It counts as cell-based. The note with it: Homo sapiens, 72 hrs. How it is done:
PC-3: Human prostatic carcinoma cell line;
as §3, §4

Molecules are shown by their SMILES. pIC50: −log10 of the molar value. Where a name gives a salt, the structure may show the parent alone.

PI3Kα, sequence (P42336 whole entry): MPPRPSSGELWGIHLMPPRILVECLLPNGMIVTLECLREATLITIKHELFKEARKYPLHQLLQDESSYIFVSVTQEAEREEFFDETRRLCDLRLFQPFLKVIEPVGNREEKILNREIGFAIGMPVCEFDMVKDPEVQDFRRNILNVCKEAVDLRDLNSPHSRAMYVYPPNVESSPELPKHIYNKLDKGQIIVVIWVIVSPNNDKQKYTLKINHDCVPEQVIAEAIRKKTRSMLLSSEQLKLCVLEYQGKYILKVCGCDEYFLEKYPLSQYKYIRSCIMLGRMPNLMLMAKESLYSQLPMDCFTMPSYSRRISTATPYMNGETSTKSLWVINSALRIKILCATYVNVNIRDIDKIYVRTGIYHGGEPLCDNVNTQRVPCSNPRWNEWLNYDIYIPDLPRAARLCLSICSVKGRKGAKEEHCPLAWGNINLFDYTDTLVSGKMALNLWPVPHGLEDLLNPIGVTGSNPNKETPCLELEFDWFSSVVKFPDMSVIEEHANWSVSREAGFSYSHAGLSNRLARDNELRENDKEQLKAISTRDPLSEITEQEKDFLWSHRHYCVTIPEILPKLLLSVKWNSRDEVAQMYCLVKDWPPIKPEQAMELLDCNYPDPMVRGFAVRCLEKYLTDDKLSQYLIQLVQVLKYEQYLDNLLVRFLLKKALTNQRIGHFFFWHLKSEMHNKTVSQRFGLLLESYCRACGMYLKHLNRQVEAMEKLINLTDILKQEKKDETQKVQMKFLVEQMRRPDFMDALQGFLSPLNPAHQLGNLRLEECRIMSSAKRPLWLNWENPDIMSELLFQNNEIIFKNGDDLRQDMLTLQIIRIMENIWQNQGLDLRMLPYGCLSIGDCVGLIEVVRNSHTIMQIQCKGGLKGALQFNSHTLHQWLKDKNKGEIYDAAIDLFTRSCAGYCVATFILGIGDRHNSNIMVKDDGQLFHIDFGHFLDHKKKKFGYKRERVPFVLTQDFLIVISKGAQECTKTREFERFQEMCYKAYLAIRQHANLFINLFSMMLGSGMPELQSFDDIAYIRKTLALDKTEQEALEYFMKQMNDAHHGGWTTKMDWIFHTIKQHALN
PI3Kα, sequence (P27986 whole entry partner): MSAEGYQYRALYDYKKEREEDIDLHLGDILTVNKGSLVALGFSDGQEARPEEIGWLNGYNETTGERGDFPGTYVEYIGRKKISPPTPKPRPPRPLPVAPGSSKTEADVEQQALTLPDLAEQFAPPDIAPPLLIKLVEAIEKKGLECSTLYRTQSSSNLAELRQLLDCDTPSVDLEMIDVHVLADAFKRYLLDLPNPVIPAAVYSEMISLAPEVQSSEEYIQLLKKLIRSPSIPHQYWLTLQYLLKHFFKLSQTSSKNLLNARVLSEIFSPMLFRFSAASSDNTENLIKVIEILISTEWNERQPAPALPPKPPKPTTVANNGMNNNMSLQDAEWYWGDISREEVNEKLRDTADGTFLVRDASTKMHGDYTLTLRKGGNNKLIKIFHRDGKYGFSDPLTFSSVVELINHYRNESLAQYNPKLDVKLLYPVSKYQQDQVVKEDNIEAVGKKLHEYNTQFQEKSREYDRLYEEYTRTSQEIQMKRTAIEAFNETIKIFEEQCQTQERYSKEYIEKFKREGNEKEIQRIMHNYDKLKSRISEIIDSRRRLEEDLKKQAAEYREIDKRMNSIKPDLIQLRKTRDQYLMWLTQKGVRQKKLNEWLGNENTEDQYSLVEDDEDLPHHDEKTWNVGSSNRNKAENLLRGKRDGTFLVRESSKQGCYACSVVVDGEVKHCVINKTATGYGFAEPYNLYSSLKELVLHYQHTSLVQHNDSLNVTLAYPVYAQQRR

For orientation: pIC50 means the IC50 on a negative log10 scale, so that one unit is a factor of ten. Consider `Nc1ncc(-c2ccc3ncc4c(=O)[nH]c(=O)n(-c5cccc(C(F)(F)F)c5)c4c3n2)cn1` [Compound 20, 9-(2-aminopyrimidin-5-yl)-1-(3-(trifluoromethyl)phenyl)pyrimido[5,4-c][1,5]naphthyridine-2,4(1H,3H)-dione], for which the negative logarithm of the IC50 (pIC50) in series [1] was 8.58; in series [2] it was 7.82.
A word on the IC50: it is the concentration at which inhibition is half-maximal. A low value points to greater potency in that assay. What is called AUC(0-inf) is the area under the concentration-time curve extrapolated to infinity. High values mean more exposure, low ones less exposure. What is called AUC(0-t) is exposure summed from dosing to a finite time, without extrapolation to infinity. Read a low AUC(0-t) as less exposure. Usually clearance stands for the volume of plasma or blood freed of the substance per unit of time. Low values mean a low capacity for elimination, high ones a high capacity for elimination. One may read the half-life as the time in which the quantity being followed falls by half. The low end stands for rapid decline, the high end for slow decline. By Cmax is commonly meant the maximum level reached in the sampled fluid or tissue. What is called Tmax is the time at which the peak concentration occurs. `Cn1c(=O)c2cnc3ccc(-c4ccc(N)nc4)nc3c2n(-c2cccc(C(F)(F)F)c2)c1=O` [Compound 6] had an IC50 in series [3] of 63.1 nM. For the same compound, in series [4] (intravenous, I.V, 2 mg/kg), the AUC(0-inf) was 4470 ng·h/mL, the AUC(0-t) turned out to be 4450 ng·h/mL, the clearance was 7.67 mL/min/kg and the half-life is 3.15 h. The Vd in series [4] (intravenous, I.V, 2 mg/kg) stood at 1.95 L/kg. Also, the bioavailability in series [4] (oral, P.O 4 mg/kg vs I.V 2 mg/kg, read-out: F % (absolute bioavailability)) stood at 115%. Moreover, in series [4] (oral, P.O, 4 mg/kg), the AUC(0-inf) came out at 10300 ng·h/mL, the AUC(0-t) was 10200 ng·h/mL, the peak level (Cmax) was 1120 ng/mL and the time to peak (Tmax) amounted to 2 h. In series [4] (oral, P.O, 4 mg/kg), the half-life is 3.92 h. Further, in series [5], 89.5 nM corresponded to half-maximal inhibition (IC50). For the same compound, the IC50 in series [6] turned out to be 37.6 nM. The same compound gave a half-maximal inhibitory concentration (IC50) in series [7] of 35.8 nM.
As for `COc1ncc(-c2ccc3ncc4c(=O)[nH]c(=O)n(-c5cccc(C(F)(F)F)c5)c4c3n2)cn1` [Compound 17, 9-(2-methoxypyrimidin-5-yl)-1-(3-(trifluoromethyl)phenyl)pyrimido[5,4-c][1,5]naphthyridine-2,4(1H,3H)-dione], the negative-log IC50 (pIC50) in series [1] is 7.41; in series [2], 7.39.
In series [4] (intravenous, I.V, 2 mg/kg), `O=c1[nH]c(=O)n(-c2cccc(C(F)(F)F)c2)c2c1cnc1ccc(-c3cnc4[nH]ccc4c3)nc12` [Compound 30 hydrochloride] had a total exposure AUC(0-inf) of 1690 ng·h/mL, an AUC(0-t) of 1680 ng·h/mL, a clearance of 19.7 mL/min/kg and a half-life of 3.04 h. Moreover, the Vd in series [4] (intravenous, I.V, 2 mg/kg) was found to be 2.49 L/kg.
`COc1ccc(-c2ccc3ncc4c(=O)[nH]c(=O)n(-c5cccc(C(F)(F)F)c5)c4c3n2)cn1` [Compound 2, 9-(6-methoxypyridin-3-yl)-1-(3-(trifluoromethyl)phenyl)pyrimido[5,4-c][1,5]naphthyridine-2,4(1H,3H)-dione]: the pIC50 in series [1] was 7.24; in series [2] it was 7.10.

These data come from US9365572B2, “PI3K and/or mTOR inhibitor” (XUANZHU PHARMA CO., LTD., priority 2012, dated 2016).
